Results taken from article PMC10746543, “Design principles for cyclin K molecular glue degraders” (Nature Chemical Biology, 2023).
Several values for one entry are separate records, joined by “and”; a condition that tells them apart may be missing. Identical values can stand only once. Like-named read-outs stand apart in the source and are kept apart here.

Assays:
CDK9–cyclin T = target: T1, CDK9–cyclin T (Homo sapiens, UniProt P50750); assay: Lanthascreen kinase binding assay, CDK9; settings: for IC50: Supplementary Table 2, read-out: Lanthascreen IC50 [nM] CDK9; for Lanthascreen TR-FRET signal (raw ratio), sheet CDK9: duplicates
T1 construct: purchased Thermo Fisher
T1 sequence (P50750 whole entry): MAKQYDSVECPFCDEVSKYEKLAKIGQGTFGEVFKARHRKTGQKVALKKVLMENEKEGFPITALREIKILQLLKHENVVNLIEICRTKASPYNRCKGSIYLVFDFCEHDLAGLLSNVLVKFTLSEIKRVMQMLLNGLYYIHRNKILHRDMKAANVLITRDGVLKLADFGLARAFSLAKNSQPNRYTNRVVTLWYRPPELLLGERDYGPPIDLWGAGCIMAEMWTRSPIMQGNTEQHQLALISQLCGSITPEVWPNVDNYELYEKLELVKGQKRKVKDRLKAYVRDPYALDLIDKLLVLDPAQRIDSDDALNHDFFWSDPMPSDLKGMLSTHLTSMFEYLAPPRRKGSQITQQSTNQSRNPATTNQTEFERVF
T1 sequence (O60563 whole entry partner): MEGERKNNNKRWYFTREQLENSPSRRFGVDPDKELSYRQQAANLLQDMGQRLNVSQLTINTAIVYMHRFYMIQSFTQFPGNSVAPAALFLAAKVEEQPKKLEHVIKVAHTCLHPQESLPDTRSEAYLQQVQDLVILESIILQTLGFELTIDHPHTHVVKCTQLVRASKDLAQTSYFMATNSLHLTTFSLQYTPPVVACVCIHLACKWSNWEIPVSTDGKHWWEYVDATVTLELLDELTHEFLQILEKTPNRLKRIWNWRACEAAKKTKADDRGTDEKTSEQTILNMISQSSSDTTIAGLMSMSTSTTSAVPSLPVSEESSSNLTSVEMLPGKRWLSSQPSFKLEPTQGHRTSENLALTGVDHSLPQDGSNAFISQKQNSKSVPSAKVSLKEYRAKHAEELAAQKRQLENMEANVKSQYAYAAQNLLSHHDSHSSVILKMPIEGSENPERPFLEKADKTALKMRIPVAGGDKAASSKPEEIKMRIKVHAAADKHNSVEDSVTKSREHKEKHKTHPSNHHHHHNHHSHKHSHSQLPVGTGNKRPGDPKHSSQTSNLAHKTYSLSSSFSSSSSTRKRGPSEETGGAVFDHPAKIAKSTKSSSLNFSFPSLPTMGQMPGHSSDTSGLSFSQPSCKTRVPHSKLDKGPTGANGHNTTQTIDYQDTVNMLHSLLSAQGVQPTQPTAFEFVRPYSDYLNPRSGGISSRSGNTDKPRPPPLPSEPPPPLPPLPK
Experimental: (§1) Lanthascreen experiments were performed using commercially available reagents (Thermo Fisher) and according to the manufacturer’s instructions.

CDK2–cyclin A = target: T2, CDK2–cyclin A (Homo sapiens, UniProt P24941); assay: Lanthascreen kinase binding assay, CDK2
T2 construct: purchased Thermo Fisher
Experimental: as §1

[1] = tested on: cyclin K–eGFP degradation reporter; assay: Cyclin K reporter stability analysis (dual-color cyclin K–eGFP reporter); assay type: cell-based, human
In short: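 HEK293T–Cas9 cells carrying the cyclin K–eGFP reporter were seeded at 1 × 10^6 ml^−1 and exposed to drug or DMSO for 5 h. Flow cytometry gave geometric means of eGFP and mCherry in round, mCherry-positive cells. The eGFP/mCherry ratio was normalized to the mean of three DMSO controls.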

[2] = compound 1.02544 nM, first titration set (r1)
[3] = compound 3.15521 nM, first titration set (r1)
[4] = compound 9.46563 nM, first titration set (r1)
[5] = compound 31.5521 nM, first titration set (r1)
[6] = compound 99.3891 nM, first titration set (r1)
[7] = compound 315.521 nM, first titration set (r1)
[8] = compound 3155.21 nM, first titration set (r1)
[9] = compound 10002 nM, first titration set (r1)
[10] = Compound 1.02544 nM, raw replicates, experiment r1-r11
[11] = Compound 3.15521 nM, raw replicates, experiment r1-r11
[12] = Compound 9.46563 nM, raw replicates, experiment r1-r11
[13] = Compound 31.5521 nM, raw replicates, experiment r1-r11
[14] = Compound 99.3891 nM, raw replicates, experiment r1-r11
[15] = Compound 315.521 nM, raw replicates, experiment r1-r11
[16] = Compound 3155.21 nM, raw replicates, experiment r1-r11
[17] = Compound 10002 nM, raw replicates, experiment r1-r11
[18] = Supplementary Table 2, read-out: Lanthascreen IC50 [nM] CDK2
[19] = source data sheet correlations, read-out: DC50
[20] = compound 0.038147 nM, second titration set (r13)
[21] = compound 0.152588 nM, second titration set (r13)
[22] = compound 0.610352 nM, second titration set (r13)
[23] = compound 9.76563 nM, second titration set (r13)
[24] = compound 39.0625 nM, second titration set (r13)
[25] = compound 156.25 nM, second titration set (r13)
[26] = compound 625 nM, second titration set (r13)
[27] = compound 2500 nM, second titration set (r13)
[28] = compound 10000 nM, second titration set (r13)
[29] = Compound 0.038147 nM, raw replicates, experiment r13-r23
[30] = Compound 0.152588 nM, raw replicates, experiment r13-r23
[31] = Compound 0.610352 nM, raw replicates, experiment r13-r23
[32] = Compound 9.76563 nM, raw replicates, experiment r13-r23
[33] = Compound 39.0625 nM, raw replicates, experiment r13-r23
[34] = Compound 156.25 nM, raw replicates, experiment r13-r23
[35] = Compound 625 nM, raw replicates, experiment r13-r23
[36] = Compound 2500 nM, raw replicates, experiment r13-r23
[37] = Compound 10000 nM, raw replicates, experiment r13-r23
[38] = Lanthascreen, average, Extended Data Fig. 8, read-out: CDK2 IC50

Row | SMILES | IC50 (CDK9–cyclin T) [nM] | Lanthascreen TR-FRET signal (raw ratio), sheet CDK9 (CDK9–cyclin T; [2]) | Lanthascreen TR-FRET signal (raw ratio), sheet CDK9 (CDK9–cyclin T; [3]) | Lanthascreen TR-FRET signal (raw ratio), sheet CDK9 (CDK9–cyclin T; [4]) | Lanthascreen TR-FRET signal (raw ratio), sheet CDK9 (CDK9–cyclin T; [5]) | Lanthascreen TR-FRET signal (raw ratio), sheet CDK9 (CDK9–cyclin T; [6]) | Lanthascreen TR-FRET signal (raw ratio), sheet CDK9 (CDK9–cyclin T; [7]) | Lanthascreen TR-FRET signal (raw ratio), sheet CDK9 (CDK9–cyclin T; [8]) | Lanthascreen TR-FRET signal (raw ratio), sheet CDK9 (CDK9–cyclin T; [9]) | Lanthascreen signal, sheet CDK2 (CDK2–cyclin A; [10]) | Lanthascreen signal, sheet CDK2 (CDK2–cyclin A; [11]) | Lanthascreen signal, sheet CDK2 (CDK2–cyclin A; [12]) | Lanthascreen signal, sheet CDK2 (CDK2–cyclin A; [13]) | Lanthascreen signal, sheet CDK2 (CDK2–cyclin A; [14]) | Lanthascreen signal, sheet CDK2 (CDK2–cyclin A; [15]) | Lanthascreen signal, sheet CDK2 (CDK2–cyclin A; [16]) | Lanthascreen signal, sheet CDK2 (CDK2–cyclin A; [17]) | IC50 (CDK2–cyclin A; [18]) [nM] | DC50 [1, 19] [µM] | Lanthascreen TR-FRET signal (raw ratio), sheet CDK9 (CDK9–cyclin T; [20]) | also measured
1 | Cc1cc2nc(CNc3nc(N4CCN(C)CC4)nc4c(Br)cnn34)[nH]c2cc1C [DS73, reference compound] | 557 | 0.01409 and 0.01452 | 0.01533 and 0.01444 | 0.01086 and 0.01492 | 0.01278 and 0.01412 | 0.01498 and 0.0129 | 0.01059 and 0.008471 | 0.004926 and 0.00557 | 0.002868 and 0.004276 | 0.01165 and 0.01109 | 0.008478 and 0.00993 | 0.009994 and 0.009998 | 0.01039 and 0.01091 | 0.0115 and 0.01029 | 0.008046 and 0.01008 | 0.007483 and 0.007205 | 0.003415 and 0.004039 | 6120 | 0.001 |  | Lanthascreen signal, sheet CDK2 (CDK2–cyclin A; Compound 4.57247 nM, experiment r25-r34): 0.01637; Lanthascreen signal, sheet CDK2 (CDK2–cyclin A; Compound 13.7174 nM, experiment r25-r34): 0.01615; Lanthascreen signal, sheet CDK2 (CDK2–cyclin A; Compound 41.1523 nM, experiment r25-r34): 0.01569; Lanthascreen signal, sheet CDK2 (CDK2–cyclin A; Compound 123.457 nM, experiment r25-r34): 0.01519; Lanthascreen signal, sheet CDK2 (CDK2–cyclin A; Compound 370.37 nM, experiment r25-r34): 0.01387; Lanthascreen signal, sheet CDK2 (CDK2–cyclin A; Compound 3333.33 nM, experiment r25-r34): 0.009102; Lanthascreen signal, sheet CDK2 (CDK2–cyclin A; Compound 10000 nM, experiment r25-r34): 0.006383
2 | O=C(CSc1nnc2c(n1)[nH]c1ccccc12)Nc1ccc(Cl)cn1 [dCeMM2] | 1110 | 0.01429 and 0.01561 | 0.01467 and 0.01402 | 0.01439 and 0.01388 | 0.01459 and 0.0177 | 0.01319 and 0.01787 | 0.01154 and 0.01497 | 0.01003 and 0.01129 | 0.009746 and 0.009366 | 0.01157 and 0.009543 | 0.01134 and 0.008854 | 0.008629 and 0.01226 | 0.009538 and 0.01114 | 0.01108 and 0.01101 | 0.0103 and 0.01153 | 0.01038 and 0.01039 | 0.01161 and 0.009572 | > 10000 | 0.633 | 0.01383 and 0.01355 | Lanthascreen TR-FRET signal (raw ratio), sheet CDK9 (CDK9–cyclin T; [21]): 0.0139 and 0.01441; Lanthascreen TR-FRET signal (raw ratio), sheet CDK9 (CDK9–cyclin T; [22]): 0.01347 and 0.01396; Lanthascreen TR-FRET signal (raw ratio), sheet CDK9 (CDK9–cyclin T; [23]): 0.01427 and 0.01339; Lanthascreen TR-FRET signal (raw ratio), sheet CDK9 (CDK9–cyclin T; [24]): 0.01365 and 0.01337; Lanthascreen TR-FRET signal (raw ratio), sheet CDK9 (CDK9–cyclin T; [25]): 0.01319 and 0.01335; Lanthascreen TR-FRET signal (raw ratio), sheet CDK9 (CDK9–cyclin T; [26]): 0.01033 and 0.01039; Lanthascreen TR-FRET signal (raw ratio), sheet CDK9 (CDK9–cyclin T; [27]): 0.00843 and 0.008233; Lanthascreen TR-FRET signal (raw ratio), sheet CDK9 (CDK9–cyclin T; [28]): 0.006379 and 0.005879; Lanthascreen signal, sheet CDK2 (CDK2–cyclin A; [29]): 0.01324 and 0.0125; Lanthascreen signal, sheet CDK2 (CDK2–cyclin A; [30]): 0.01322 and 0.0127; Lanthascreen signal, sheet CDK2 (CDK2–cyclin A; [31]): 0.01294 and 0.01324; Lanthascreen signal, sheet CDK2 (CDK2–cyclin A; [32]): 0.01333 and 0.01313; Lanthascreen signal, sheet CDK2 (CDK2–cyclin A; [33]): 0.01348 and 0.0134; Lanthascreen signal, sheet CDK2 (CDK2–cyclin A; [34]): 0.01287 and 0.01355; Lanthascreen signal, sheet CDK2 (CDK2–cyclin A; [35]): 0.01294 and 0.01314; Lanthascreen signal, sheet CDK2 (CDK2–cyclin A; [36]): 0.01073 and 0.0108; Lanthascreen signal, sheet CDK2 (CDK2–cyclin A; [37]): 0.01123 and 0.01202; IC50 (CDK2–cyclin A; [38]): > 10000 nM
3 | O=C(CSc1nc2ccccc2[nH]1)Nc1ccc(Cl)cn1 [dCeMM3] | 3020 | 0.01545 and 0.0134 | 0.01353 and 0.01504 | 0.01222 and 0.01325 | 0.0135 and 0.01525 | 0.01289 and 0.01231 | 0.01199 and 0.01288 | 0.006467 and 0.007084 | 0.0026 and 0.00423 | 0.008366 and 0.009193 | 0.01197 and 0.009076 | 0.01142 and 0.01118 | 0.01118 and 0.009287 | 0.01102 and 0.008633 | 0.01039 and 0.01098 | 0.0101 and 0.009174 | 0.008182 and 0.007001 | > 10000 |  | 0.01294 and 0.01365 | Lanthascreen TR-FRET signal (raw ratio), sheet CDK9 (CDK9–cyclin T; [21]): 0.0141 and 0.01339; Lanthascreen TR-FRET signal (raw ratio), sheet CDK9 (CDK9–cyclin T; [22]): 0.0143 and 0.01462; Lanthascreen TR-FRET signal (raw ratio), sheet CDK9 (CDK9–cyclin T; [23]): 0.01396 and 0.01385; Lanthascreen TR-FRET signal (raw ratio), sheet CDK9 (CDK9–cyclin T; [24]): 0.0129 and 0.01348; Lanthascreen TR-FRET signal (raw ratio), sheet CDK9 (CDK9–cyclin T; [25]): 0.01372 and 0.01352; Lanthascreen TR-FRET signal (raw ratio), sheet CDK9 (CDK9–cyclin T; [26]): 0.01085 and 0.01132; Lanthascreen TR-FRET signal (raw ratio), sheet CDK9 (CDK9–cyclin T; [27]): 0.0085 and 0.007435; Lanthascreen TR-FRET signal (raw ratio), sheet CDK9 (CDK9–cyclin T; [28]): 0.00463 and 0.004475; Lanthascreen signal, sheet CDK2 (CDK2–cyclin A; [29]): 0.01285 and 0.01289; Lanthascreen signal, sheet CDK2 (CDK2–cyclin A; [30]): 0.01318 and 0.01321; Lanthascreen signal, sheet CDK2 (CDK2–cyclin A; [31]): 0.01258 and 0.01278; Lanthascreen signal, sheet CDK2 (CDK2–cyclin A; [32]): 0.01261 and 0.01356; Lanthascreen signal, sheet CDK2 (CDK2–cyclin A; [33]): 0.01377 and 0.01313; Lanthascreen signal, sheet CDK2 (CDK2–cyclin A; [34]): 0.01301 and 0.01263; Lanthascreen signal, sheet CDK2 (CDK2–cyclin A; [35]): 0.01331 and 0.01224; Lanthascreen signal, sheet CDK2 (CDK2–cyclin A; [36]): 0.0123 and 0.01244; Lanthascreen signal, sheet CDK2 (CDK2–cyclin A; [37]): 0.01049 and 0.00891; IC50 (CDK2–cyclin A; [38]): > 10000 nM; DC50 ([1]; Supplementary Table 2, HEK293T cycK-eGFP reporter, 5 h, read-out: Cellular assays DC50): > 10 µM
